Source: BindingDB's records for doi:10.1007/s10822-022-00478-x (Roche Innovation Center Basel, F. Hoffmann-La Roche Ltd., 2022)

What follows are compounds tested against cAMP and cAMP-inhibited cGMP 3',5'-cyclic phosphodiesterase 10A (Homo sapiens, UniProt Q9Y233) (assay: PDE10A assay).
Outline: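 Human PDE10A (2 ng/well) preincubated 15 min RT with compound in HEPES pH 7.5, 10 mM MgCl2, BSA, then reacted 15 min with 50 nM [3H]cGMP/cGMP substrate. Stopped with Y-Si SPA beads; bound radioactivity counted, IC50 from four-parameter logistic, pIC50 = −log10(IC50).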
In the case of `Cc1cc(NC(=O)c2c(C(=O)N3CCC3)cnn2C)n(C2CCCC2)n1` [Roche-Dataset for PDE10A, Compound 1046], the IC50 is reported as 649 nM.
For `Cn1ncc(C(=O)N2CCC2)c1C(=O)Nc1ccn(-c2ccc(Cl)cc2Cl)n1` [Roche-Dataset for PDE10A, Compound 1034], the IC50 was 1060 nM.
`O=C(c1nc(C2CC2)cnc1Nc1cncnc1)N1CCN(Cc2ccccc2)CC1` [Roche-Dataset for PDE10A, Compound 1008] was tested, and the IC50 was 371 nM.
`O=C(Nc1ccncc1C(F)(F)F)c1ccc2cc(-c3ccccc3)nn2c1` [Roche-Dataset for PDE10A, Compound 367] showed an IC50 of 1070 nM.
`O=C(NCc1cnn(-c2ccccc2)n1)c1nc(C2CC2)cnc1Nc1cncnc1` [Roche-Dataset for PDE10A, Compound 727] gave an IC50 of 59 nM.
`COc1ccccc1-c1cn2c(n1)C[C@H](NC(=O)c1c(C(=O)N3CCC3)cnn1C)CC2` [Roche-Dataset for PDE10A, Compound 330] showed an IC50 of 3.76 nM.
Compound `Cn1cc(-c2ccccc2)nc1CCc1nc2ccccc2c(=O)[nH]1` [Roche-Dataset for PDE10A, Compound 170] has an IC50 of 60 nM.
`CC(C)n1ccc(NC(=O)c2c(C(=O)N3CCC3)cnn2C)n1` [Roche-Dataset for PDE10A, Compound 1118] showed an IC50 of 1830 nM.
`O=C(Nc1cccc(C(=O)N2CCCC2)n1)c1nc(C2CC2)cnc1Nc1cncnc1` [Roche-Dataset for PDE10A, Compound 830] showed an IC50 of 10 nM.
Work on `Cc1ncc(C)n2nc(/C=C/c3nc(N4CC[C@@H](NC(=O)OC(C)(C)C)C4)nn3C)nc12` [Roche-Dataset for PDE10A, Compound 1132] yielded an IC50 of 752 nM.
`Cc1c(Cl)cc(OCC(F)(F)F)c2nc(CCc3nc(N4CCCC4)nn3C)nn12` [Roche-Dataset for PDE10A, Compound 119] showed an IC50 of 0.5 nM.
`Cn1ncc(C(=O)N2CCC2)c1C(=O)Nc1ccn2nc(-c3ccnc(Cl)c3)nc2c1` [Roche-Dataset for PDE10A, Compound 218] gave an IC50 of 6.9 nM.
For `CC(C)n1ccc(NC(=O)c2nc(C3CC3)ccc2Nc2cncnc2)n1` [Roche-Dataset for PDE10A, Compound 692], the IC50 was 48 nM.
`O=C(Nc1sccc1C(=O)N1CCOCC1)c1nc(C2CC2)ccc1Nc1cncnc1` [US8703768, 90] showed an IC50 of 0.44 nM.
In the case of `Cc1cnc(C)n2nc(CCc3ncnn3C)nc12` [Roche-Dataset for PDE10A, Compound 1130], the IC50 is reported as 2420 nM.
`O=C(Nc1cn(-c2ccccn2)cn1)c1nc(C2CC2)ccc1Br` [Roche-Dataset for PDE10A, Compound 1003] showed an IC50 of 434 nM.
In the case of `Cc1c(C(F)(F)F)nc2ccc(C#Cc3nc(-c4ccccc4)cn3C)nn12` [Roche-Dataset for PDE10A, Compound 106], the IC50 is reported as 1.88 nM.
`O=C(Nc1cc(-c2ccccn2)no1)c1nc(C2CC2)ccc1Nc1cncnc1` [US8470820, 51] was tested, and the IC50 was 3.85 nM.
`Cc1c(C#N)nc2ccc(C#Cc3nc(-c4ccccc4)cn3C)nn12` [Roche-Dataset for PDE10A, Compound 79] was tested, and the IC50 was 1.27 nM.
With `Cn1ncc(C(=O)N2CCC2)c1C(=O)Nc1nnc(-c2ccccn2)o1` [Roche-Dataset for PDE10A, Compound 1032] the IC50 was 10000 nM.
`Cc1ncn(-c2ccccc2)c1C(=O)Nc1cc(-c2ccccn2)nn1C` [Roche-Dataset for PDE10A, Compound 994] was tested, and the IC50 was 2150 nM.
For `CC(C)c1ncc(Nc2ccon2)c(C(=O)N[C@@H]2CCN(c3ccc(Cl)cn3)C2)n1` [Roche-Dataset for PDE10A, Compound 212], the IC50 was 232 nM.
In the case of `CCn1nc(C)cc1C(=O)Nc1cc2nc(-c3ccccc3)[nH]c2cc1C(=O)NC` [Roche-Dataset for PDE10A, Compound 369], the IC50 is reported as 22 nM.
With `Cc1ncc(C)n2nc(/C=C/c3nc(N4CCC[C@@H]4C(F)(F)F)nn3C)nc12` [Roche-Dataset for PDE10A, Compound 782] the IC50 was 3.4 nM.
In the case of `CC(C)Cn1nc(-c2ccccn2)cc1NC(=O)c1nc(C2CC2)ccc1Nc1cncnc1` [US8470820, 28], the IC50 is reported as 1.24 nM.
For `CNC(=O)c1cc2[nH]c(-c3ccccc3)nc2cc1NC(=O)c1cc(C)on1` [Roche-Dataset for PDE10A, Compound 557], the IC50 was 189 nM.
For `CN(C)c1nc2ccc(NC(=O)c3c(C(=O)N4CCC4)cnn3C)cn2n1` [Roche-Dataset for PDE10A, Compound 652], the IC50 was 8.76 nM.
`Cn1ncc(C(=O)N2CCC2)c1C(=O)N[C@@H]1CCn2cc(-c3cccc(Cl)c3)nc2C1` [Roche-Dataset for PDE10A, Compound 161] showed an IC50 of 6.59 nM.
In the case of `Cn1nc(-c2ccccn2)cc1NC(=O)c1cccn(C)c1=O` [Roche-Dataset for PDE10A, Compound 710], the IC50 is reported as 4410 nM.
`Cn1ncc(C(=O)N2CCC2)c1C(=O)Nc1ccn(-c2ccccn2)n1` [Roche-Dataset for PDE10A, Compound 1095] showed an IC50 of 785 nM.
`CNC(=O)c1c(NC(=O)c2nc(C3CC3)ccc2Nc2cncnc2)cnn1C` [Roche-Dataset for PDE10A, Compound 1053] showed an IC50 of 14 nM.
`O=C(Nc1ccc(-c2ccccn2)s1)c1nc(C2CC2)ccc1Nc1cncnc1` [US8470820, 50] showed an IC50 of 1.43 nM.
For `CCN(C)C(=O)c1cnn(CCF)c1C(=O)Nc1ccn2cc(-c3ccccc3)nc2n1` [Roche-Dataset for PDE10A, Compound 26], the IC50 was 10000 nM.
In the case of `CC(=O)N1CCC(NC(=O)c2nc(C3CC3)cnc2Nc2cncnc2)CC1` [Roche-Dataset for PDE10A, Compound 993], the IC50 is reported as 10000 nM.
`C/C(=C/c1nc2c(C)ncc(C)n2n1)c1nc(Br)nn1C` [Roche-Dataset for PDE10A, Compound 1134] gave an IC50 of 2260 nM.
`Cn1ncc(C(=O)NC2COC2)c1C(=O)N[C@@H]1CCn2cc(-c3ccccc3)nc2C1` [Roche-Dataset for PDE10A, Compound 302] showed an IC50 of 181 nM.
With `COc1ccc(Cl)cc1C(=O)Nc1cc(-c2ccccn2)nn1C` [Roche-Dataset for PDE10A, Compound 608] the IC50 was 1380 nM.
`Cc1c(Cl)cc(C(F)F)c2nc(CCc3nc(N4CCCC4)nn3C)nn12` [Roche-Dataset for PDE10A, Compound 187] gave an IC50 of 1.67 nM.
For `COc1c(C)cnc(CCc2ccc3ccccc3n2)c1C` [Roche-Dataset for PDE10A, Compound 701], the IC50 was 1480 nM.
With `O=C(Nc1ccc(N2CCOCC2=O)cc1)c1nc(C2CC2)ccc1Nc1cncnc1` [Roche-Dataset for PDE10A, Compound 686] the IC50 was 43 nM.
Work on `Cn1ncc(C(=O)N2CCC2)c1C(=O)Nc1ccc2cc(-c3ccccc3)nn2n1` [Roche-Dataset for PDE10A, Compound 1133] yielded an IC50 of 8.14 nM.
`Cc1cc(NC(=O)c2c(C(=O)N3CCC3)cnn2C)cc(N)n1` [Roche-Dataset for PDE10A, Compound 1077] gave an IC50 of 131 nM.
For `Cc1ncc(C)n2nc(/C=C/c3nc(N4CC[C@@H](C)C4)nn3C)nc12` [Roche-Dataset for PDE10A, Compound 560], the IC50 was 24 nM.
`Cn1ncc(C(=O)N2CCC2)c1C(=O)Nc1ccn(CCC#N)n1` [Roche-Dataset for PDE10A, Compound 1114] was tested, and the IC50 was 3150 nM.
Compound `Cn1ncc(C(=O)N2CCOCC2)c1C(=O)N[C@@H]1CCn2cc(-c3ccccc3Cl)nc2C1` [Roche-Dataset for PDE10A, Compound 457] has an IC50 of 2410 nM.
`Cc1ncoc1C(=O)Nc1cc(-c2ccccn2)nn1C` [Roche-Dataset for PDE10A, Compound 979] was tested, and the IC50 was 2670 nM.
With `O=C(Nc1ccnn1-c1ccccc1)c1nc(C2CC2)ccc1Nc1cncnc1` [Roche-Dataset for PDE10A, Compound 507] the IC50 was 0.87 nM.
